# How the values were obtained:
# [1] = biological target: Voltage-gated inwardly rectifying potassium channel KCNH2 (Homo sapiens, UniProt Q12809); assay: Inhibition of human ERG incubated for 4 hrs by competitive fluorescence tracer binding based assay
# Homo sapiens = species on record: Homo sapiens; assay: Selectivity index, ratio of IC50 for human RAF1 to IC50 for human p38alpha
# [2] = biological target: T1, Mitogen-activated protein kinase 14 (Homo sapiens, UniProt Q16539); assay: Inhibition of human p38alpha using MBP as substrate by [gamma-33P]-ATP assay
# [3] = biological target: Proto-oncogene tyrosine-protein kinase ROS (Homo sapiens) (UniProt P08922); assay: Inhibition of human ROS at 10 uM using KKKSPGEYVNIEFG as substrate by [gamma-33P]-ATP assay relative to control
# [4] = biological target: Mitogen-activated protein kinase 3 (Homo sapiens) (UniProt P27361); assay: Inhibition of human ERK1 at 10 uM using MBP as substrate by [gamma-33P]-ATP assay relative to control
# [5] = biological target: Tyrosine-protein kinase Fyn (Homo sapiens) (UniProt P06241); assay: Inhibition of human FYN at 10 uM using poly[Glu:Tyr] (4:1) as substrate by [gamma-33P]-ATP assay relative to control
# [6] = biological target: Tyrosine-protein kinase BTK (Homo sapiens) (UniProt Q06187); assay: Inhibition of human BTK at 10 uM using KVEKIGEGTYGVVYK as substrate by [gamma-33P]-ATP assay relative to control
# [7] = biological target: Receptor tyrosine-protein kinase erbB-2 (Homo sapiens) (UniProt P04626); assay: Inhibition of human ERBB2 at 10 uM using poly[Glu:Tyr] (4:1) as substrate by [gamma-33P]-ATP assay relative to control
# [8] = biological target: Receptor tyrosine-protein kinase erbB-4 (Homo sapiens) (UniProt Q15303); assay: Inhibition of human ERBB4 at 10 uM using poly[Glu:Tyr] (4:1) as substrate by [gamma-33P]-ATP assay relative to control
# [9] = biological target: Fibroblast growth factor receptor 1 (Homo sapiens) (UniProt P11362); assay: Inhibition of human FGFR1 at 10 uM using KKKSPGEYVNIEFG as substrate by [gamma-33P]-ATP assay relative to control
# [10] = biological target: Macrophage colony-stimulating factor 1 receptor (Homo sapiens) (UniProt P07333); assay: Inhibition of human FMS at 10 uM using poly[Glu:Tyr] (4:1) as substrate by [gamma-33P]-ATP assay relative to control
# [11] = biological target: Tyrosine-protein kinase JAK1 (Homo sapiens) (UniProt P23458); assay: Inhibition of human JAK1 at 10 uM using poly[Glu:Tyr] (4:1) as substrate by [gamma-33P]-ATP assay relative to control
# [12] = biological target: Tyrosine-protein kinase JAK2 (Homo sapiens) (UniProt O60674); assay: Inhibition of human JAK2 at 10 uM using poly[Glu:Tyr] (4:1) as substrate by [gamma-33P]-ATP assay relative to control
# [13] = biological target: T1, Mitogen-activated protein kinase 14; assay: Inhibition of human p38alpha at 10 uM using MBP as substrate by [gamma-33P]-ATP assay relative to control
# [14] = biological target: Serine/threonine-protein kinase B-raf (Homo sapiens) (UniProt P15056); assay: Inhibition of human BRAF at 10 uM using MEK1 (K97R) as substrate by [gamma-33P]-ATP assay relative to control
# [15] = tested on: Serine/threonine-protein kinase B-raf (Homo sapiens), P15056 [V600E]; assay: Inhibition of human BRAF V600E mutant at 10 uM using MEK1 (K97R) as substrate by [gamma-33P]-ATP assay relative to control
# [16] = biological target: Mast/stem cell growth factor receptor Kit (Homo sapiens) (UniProt P10721); assay: Inhibition of human c-KIT at 10 uM using poly[Glu:Tyr] (4:1) as substrate by [gamma-33P]-ATP assay relative to control
# [17] = biological target: Hepatocyte growth factor receptor (Homo sapiens, UniProt P08581); assay: Inhibition of human c-MET at 10 uM using KKKSPGEYVNIEFG as substrate by [gamma-33P]-ATP assay relative to control
# [18] = biological target: T2, RAF proto-oncogene serine/threonine-protein kinase (Homo sapiens, UniProt P04049); assay: Inhibition of human RAF1 at 10 uM using MEK1 (K97R) as substrate by [gamma-33P]-ATP assay relative to control
# [19] = biological target: Aurora kinase A (Homo sapiens) (UniProt O14965); assay: Inhibition of human Aurora A at 10 uM using [H-LRRASLG] as substrate by [gamma-33P]-ATP assay relative to control
# [20] = biological target: ALK tyrosine kinase receptor (Homo sapiens) (UniProt Q9UM73); assay: Inhibition of human ALK at 10 uM using poly[Glu:Tyr] (4:1) as substrate by [gamma-33P]-ATP assay relative to control
# [21] = biological target: Serine/threonine-protein kinase A-Raf (Homo sapiens) (UniProt P10398); assay: Inhibition of human ARAF at 10 uM using MEK1 as substrate by [gamma-33P]-ATP assay relative to control
# [22] = biological target: T2, RAF proto-oncogene serine/threonine-protein kinase; assay: Inhibition of human RAF1 using MEK1 as substrate by [gamma-33P]-ATP assay
# [23] = biological target: Serine/threonine-protein kinase B-raf (Homo sapiens, UniProt P15056, V600E); assay: Inhibition of human BRAF V600E mutant using MEK1 as substrate by […]-ATP assay
# [24] = Stability in human plasma assessed as remaining compound at 10 uM incubated for 120 mins by LC-MS analysis; format: ADME, cell-free; settings: read-out: Stability
# [25] = Stability in rat plasma assessed as remaining compound at 10 uM incubated for 30 mins by LC-MS analysis; format: ADME, cell-free; settings: read-out: Stability
# [26] = Stability in rat plasma assessed as remaining compound at 10 uM incubated for 120 mins by LC-MS analysis; format: ADME, cell-free; settings: read-out: Stability
# [27] = AUCinfinity in Sprague-Dawley rat at 10 mg/kg, iv measured for each 30 mins by LC-MS/MS analysis; format: ADME, organism-based; set-up: dose 10 mg/kg, time infinity, route intravenous; settings: in vivo
# [28] = Half life in Sprague-Dawley rat at 10 mg/kg, iv measured for each 30 mins by LC-MS/MS analysis; format: ADME, organism-based; settings: in vivo
# [29] = Tmax in Sprague-Dawley rat at 10 mg/kg, po measured for each 30 mins by LC-MS/MS analysis; format: ADME, organism-based; settings: in vivo
# [30] = AUClast in Sprague-Dawley rat at 10 mg/kg, po measured for each 30 mins by LC-MS/MS analysis; format: ADME, organism-based; set-up: dose 10 mg/kg, route oral, time 0 - last; settings: in vivo
# [31] = AUCinfinity in Sprague-Dawley rat at 10 mg/kg, po measured for each 30 mins by LC-MS/MS analysis; format: ADME, organism-based; set-up: dose 10 mg/kg, time infinity, route oral; settings: in vivo
# [32] = Half life in Sprague-Dawley rat at 10 mg/kg, po measured for each 30 mins by LC-MS/MS analysis; format: ADME, organism-based; settings: in vivo
# [33] = Oral bioavailability in Sprague-Dawley rat at 10 mg/kg measured for each 30 mins by LC-MS/MS analysis; format: ADME, organism-based; settings: in vivo
# Rattus norvegicus = assay: Antiinflammatory activity in Sprague-Dawley rat assessed as inhibition of carrageenan-induced paw edema at 50 mg/kg, ip administered 1 hr before carrageenan stimulation and measured after 3 hrs relative to control; format: functional
# T2 sequence (P04049 whole entry): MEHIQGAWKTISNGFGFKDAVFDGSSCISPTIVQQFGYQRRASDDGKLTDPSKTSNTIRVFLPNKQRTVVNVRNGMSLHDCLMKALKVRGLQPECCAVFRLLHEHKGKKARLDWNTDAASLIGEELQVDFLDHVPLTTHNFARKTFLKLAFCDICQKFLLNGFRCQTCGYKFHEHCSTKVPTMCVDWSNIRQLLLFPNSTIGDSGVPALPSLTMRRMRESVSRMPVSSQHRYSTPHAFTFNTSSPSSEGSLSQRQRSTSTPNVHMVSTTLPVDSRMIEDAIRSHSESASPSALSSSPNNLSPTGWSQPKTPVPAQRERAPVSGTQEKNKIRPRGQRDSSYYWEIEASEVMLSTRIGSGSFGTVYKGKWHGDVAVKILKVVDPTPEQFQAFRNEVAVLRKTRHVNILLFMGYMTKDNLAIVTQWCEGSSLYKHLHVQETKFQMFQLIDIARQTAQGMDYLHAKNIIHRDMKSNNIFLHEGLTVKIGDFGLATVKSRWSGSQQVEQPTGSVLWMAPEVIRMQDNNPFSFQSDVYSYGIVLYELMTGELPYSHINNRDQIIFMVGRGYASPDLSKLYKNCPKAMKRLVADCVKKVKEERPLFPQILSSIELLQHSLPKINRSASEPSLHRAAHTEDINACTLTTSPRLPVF
# T1 sequence (Q16539 whole entry): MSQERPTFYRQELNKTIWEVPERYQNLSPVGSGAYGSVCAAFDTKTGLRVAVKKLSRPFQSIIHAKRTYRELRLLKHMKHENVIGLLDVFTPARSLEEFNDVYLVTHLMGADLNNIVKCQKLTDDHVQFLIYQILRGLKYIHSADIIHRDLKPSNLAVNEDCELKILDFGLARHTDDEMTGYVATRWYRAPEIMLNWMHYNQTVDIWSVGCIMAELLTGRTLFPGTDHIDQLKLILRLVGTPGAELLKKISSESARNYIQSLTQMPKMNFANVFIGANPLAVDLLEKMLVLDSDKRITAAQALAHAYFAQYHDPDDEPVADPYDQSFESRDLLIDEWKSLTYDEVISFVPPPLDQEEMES
# Chain of Receptor tyrosine-protein kinase erbB-2 (Homo sapiens) (P04626 whole entry): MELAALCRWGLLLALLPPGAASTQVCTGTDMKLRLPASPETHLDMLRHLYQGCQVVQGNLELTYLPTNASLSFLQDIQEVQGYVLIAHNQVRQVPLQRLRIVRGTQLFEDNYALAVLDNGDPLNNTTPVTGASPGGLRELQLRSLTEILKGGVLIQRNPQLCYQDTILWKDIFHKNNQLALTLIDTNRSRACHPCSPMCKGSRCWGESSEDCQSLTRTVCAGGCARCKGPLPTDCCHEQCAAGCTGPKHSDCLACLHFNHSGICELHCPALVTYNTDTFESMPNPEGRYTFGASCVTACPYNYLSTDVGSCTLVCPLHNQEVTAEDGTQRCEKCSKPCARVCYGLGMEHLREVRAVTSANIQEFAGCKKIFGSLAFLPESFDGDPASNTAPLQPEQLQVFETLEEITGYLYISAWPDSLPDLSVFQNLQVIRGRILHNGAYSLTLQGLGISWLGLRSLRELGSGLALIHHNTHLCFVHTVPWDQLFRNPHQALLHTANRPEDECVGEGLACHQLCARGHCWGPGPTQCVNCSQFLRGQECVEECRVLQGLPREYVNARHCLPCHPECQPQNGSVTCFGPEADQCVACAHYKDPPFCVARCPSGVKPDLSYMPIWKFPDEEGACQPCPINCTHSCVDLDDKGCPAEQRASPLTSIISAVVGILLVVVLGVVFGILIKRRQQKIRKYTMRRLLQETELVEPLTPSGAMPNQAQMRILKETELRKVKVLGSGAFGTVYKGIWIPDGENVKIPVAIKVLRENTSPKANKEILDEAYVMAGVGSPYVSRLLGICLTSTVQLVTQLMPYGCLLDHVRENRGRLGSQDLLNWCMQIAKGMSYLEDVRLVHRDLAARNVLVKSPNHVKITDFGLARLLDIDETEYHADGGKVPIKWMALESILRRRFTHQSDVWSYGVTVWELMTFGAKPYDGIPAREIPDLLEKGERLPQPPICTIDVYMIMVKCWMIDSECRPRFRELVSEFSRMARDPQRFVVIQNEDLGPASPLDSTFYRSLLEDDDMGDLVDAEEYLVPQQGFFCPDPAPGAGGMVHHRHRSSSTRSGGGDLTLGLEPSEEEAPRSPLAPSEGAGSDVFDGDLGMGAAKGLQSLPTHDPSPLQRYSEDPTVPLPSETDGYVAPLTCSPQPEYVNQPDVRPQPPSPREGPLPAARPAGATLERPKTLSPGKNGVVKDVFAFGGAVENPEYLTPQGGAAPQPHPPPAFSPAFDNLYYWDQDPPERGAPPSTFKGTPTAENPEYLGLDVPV
# Chain of Mitogen-activated protein kinase 3 (Homo sapiens) (P27361 whole entry): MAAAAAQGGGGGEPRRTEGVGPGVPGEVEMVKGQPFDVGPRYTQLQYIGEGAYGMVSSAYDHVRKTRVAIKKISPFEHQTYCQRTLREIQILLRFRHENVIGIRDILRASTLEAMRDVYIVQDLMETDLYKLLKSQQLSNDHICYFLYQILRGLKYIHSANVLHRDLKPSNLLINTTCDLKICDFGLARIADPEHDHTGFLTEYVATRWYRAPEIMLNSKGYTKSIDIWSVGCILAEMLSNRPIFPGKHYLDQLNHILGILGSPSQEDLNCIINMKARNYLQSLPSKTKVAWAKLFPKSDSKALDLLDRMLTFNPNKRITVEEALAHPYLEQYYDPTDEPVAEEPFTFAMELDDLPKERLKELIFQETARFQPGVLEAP
# Chain of Fibroblast growth factor receptor 1 (Homo sapiens) (P11362 22-822 limits assumed): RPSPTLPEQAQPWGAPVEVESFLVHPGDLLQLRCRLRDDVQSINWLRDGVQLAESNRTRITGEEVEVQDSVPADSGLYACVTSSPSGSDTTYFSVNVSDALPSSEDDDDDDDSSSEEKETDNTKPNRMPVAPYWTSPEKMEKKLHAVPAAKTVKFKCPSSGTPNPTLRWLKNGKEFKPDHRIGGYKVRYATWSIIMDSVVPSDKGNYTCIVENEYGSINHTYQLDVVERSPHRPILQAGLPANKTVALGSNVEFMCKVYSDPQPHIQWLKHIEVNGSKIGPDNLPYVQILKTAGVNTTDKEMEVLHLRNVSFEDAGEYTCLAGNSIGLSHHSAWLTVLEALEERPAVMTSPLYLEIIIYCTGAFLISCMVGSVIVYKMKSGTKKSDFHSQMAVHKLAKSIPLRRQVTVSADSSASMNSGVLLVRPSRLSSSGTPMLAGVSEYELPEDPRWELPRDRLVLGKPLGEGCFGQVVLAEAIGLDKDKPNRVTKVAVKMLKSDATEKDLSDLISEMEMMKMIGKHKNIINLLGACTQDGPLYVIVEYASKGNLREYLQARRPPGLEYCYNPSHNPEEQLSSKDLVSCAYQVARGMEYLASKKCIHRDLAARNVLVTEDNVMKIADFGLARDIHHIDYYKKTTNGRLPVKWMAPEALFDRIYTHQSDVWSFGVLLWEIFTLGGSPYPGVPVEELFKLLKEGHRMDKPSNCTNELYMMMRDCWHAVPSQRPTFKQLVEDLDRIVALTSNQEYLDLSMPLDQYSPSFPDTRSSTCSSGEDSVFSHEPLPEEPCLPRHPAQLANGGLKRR
# Chain of Serine/threonine-protein kinase B-raf (P15056 2-766 V600E limits assumed): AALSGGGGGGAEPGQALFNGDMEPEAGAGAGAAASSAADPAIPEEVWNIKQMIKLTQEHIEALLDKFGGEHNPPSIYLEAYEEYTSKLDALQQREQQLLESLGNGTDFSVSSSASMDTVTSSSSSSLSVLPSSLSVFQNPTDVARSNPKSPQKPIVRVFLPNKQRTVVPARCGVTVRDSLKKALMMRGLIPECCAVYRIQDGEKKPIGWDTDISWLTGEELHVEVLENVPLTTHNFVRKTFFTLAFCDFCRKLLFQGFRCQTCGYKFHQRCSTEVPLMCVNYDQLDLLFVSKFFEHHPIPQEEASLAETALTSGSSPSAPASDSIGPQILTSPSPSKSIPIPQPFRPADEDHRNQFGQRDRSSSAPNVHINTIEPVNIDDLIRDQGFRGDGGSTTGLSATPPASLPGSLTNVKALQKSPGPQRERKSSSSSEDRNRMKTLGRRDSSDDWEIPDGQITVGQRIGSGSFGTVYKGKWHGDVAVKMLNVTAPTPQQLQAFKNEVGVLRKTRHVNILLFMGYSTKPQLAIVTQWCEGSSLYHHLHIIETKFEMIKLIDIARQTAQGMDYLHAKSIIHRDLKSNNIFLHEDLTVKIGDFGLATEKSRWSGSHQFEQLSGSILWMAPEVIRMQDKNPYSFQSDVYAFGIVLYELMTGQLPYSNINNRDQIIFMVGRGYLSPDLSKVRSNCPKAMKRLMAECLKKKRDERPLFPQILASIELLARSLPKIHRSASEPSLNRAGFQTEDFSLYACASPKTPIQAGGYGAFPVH
# Chain of Tyrosine-protein kinase Fyn (Homo sapiens) (P06241 2-537 limits assumed): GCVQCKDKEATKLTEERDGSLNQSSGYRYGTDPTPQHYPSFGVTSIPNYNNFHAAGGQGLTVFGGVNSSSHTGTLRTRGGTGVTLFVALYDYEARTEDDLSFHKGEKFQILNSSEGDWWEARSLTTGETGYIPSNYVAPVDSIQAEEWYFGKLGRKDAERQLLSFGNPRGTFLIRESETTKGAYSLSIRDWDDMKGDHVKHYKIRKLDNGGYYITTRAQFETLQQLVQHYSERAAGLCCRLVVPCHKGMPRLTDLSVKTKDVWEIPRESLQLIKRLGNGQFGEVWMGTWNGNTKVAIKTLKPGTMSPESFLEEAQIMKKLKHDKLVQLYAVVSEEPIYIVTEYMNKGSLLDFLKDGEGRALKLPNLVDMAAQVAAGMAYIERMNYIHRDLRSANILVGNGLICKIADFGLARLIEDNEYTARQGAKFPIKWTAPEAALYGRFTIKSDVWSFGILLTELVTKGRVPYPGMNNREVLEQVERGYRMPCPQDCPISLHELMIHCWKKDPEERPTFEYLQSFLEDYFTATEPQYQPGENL
compound,measurement,setting,value
COc1ccc(-c2nn(-c3cccc(NC(=O)c4cccc(C(F)(F)F)c4)c3)cc2-c2ccncc2)cc1Cl,IC50,[1],13100 nM
same,Ratio IC50,Homo sapiens,15.3
same,IC50,[2],22 nM
same,inhibition,[3],5.26%
same,inhibition,[4],-1.3%
same,inhibition,[5],27%
same,inhibition,[6],5.62%
same,inhibition,[7],20.4%
same,inhibition,[8],26.9%
same,inhibition,[9],24.4%
same,inhibition,[10],19%
same,inhibition,[11],-7.68%
same,inhibition,[12],-9.88%
same,inhibition,[13],94.6%
same,inhibition,[14],54.4%
same,inhibition,[15],90.8%
same,inhibition,[16],5.66%
same,inhibition,[17],77.7%
same,inhibition,[18],90.5%
same,inhibition,[19],3.1%
same,inhibition,[20],3.5%
same,inhibition,[21],64.2%
same,IC50,[22],336 nM
same,IC50,[23],158 nM
same,"remaining at 2 h, 10 µM",[24],98.4%
same,"remaining at 0.5 h, 10 µM",[25],100%
same,"remaining at 2 h, 10 µM",[26],100%
same,AUC(0-inf),[27],1460 ng·h/mL
same,half-life,[28],6.4 h
same,Tmax,[29],1.2 h
same,AUC(0-t) at 0.5 h,[30],164 ng·h/mL
same,AUC(0-inf),[31],169 ng·h/mL
same,half-life,[32],7.3 h
same,bioavailability,[33],11.3%
same,inhibition in vivo at 50 mg/kg,Rattus norvegicus,66.5%

# — ChEMBL document CHEMBL4311959, “Discovery of a potent p38α/MAPK14 kinase inhibitor: Synthesis, in vitro/in vivo biological evaluation, and docking studies” (Eur J Med Chem, 2019)
